Activity calls are given as the source filed them. The calls are words filed in the database; no cut-off is given here.
Key:
[1] = test system: PC-9; experiment: Induction of apoptosis in human PC-9 cells expressing EGFR L858R/T790M/C797S mutant assessed as early apoptotic cells at 1 uM incubated for 48 hrs by Annexin V-FITC/PI staining based flow cytometric analysis (reference value: 0.210 %); format: functional
[2] = test system: PC-9; experiment: Induction of apoptosis in human PC-9 cells expressing EGFR L858R/T790M/C797S mutant assessed as late apoptotic cells at 1 uM incubated for 48 hrs by Annexin V-FITC/PI staining based flow cytometric analysis (reference value: 0.360 %); format: functional
[3] = Metabolic stability in rabbit liver microsomes assessed as intrinsic clearance at 10 uM preincubated for 5 mins followed by NADPH addition and measured upto 60 mins by HPLC analysis; format: ADME, Oryctolagus cuniculus, Microsome; conditions: time < 65 min, read-out: CLH
[4] = test system: NCI-H1975; experiment: cells; conditions: Homo sapiens, NCI-H1975, 72 h
Description: Cytotoxicity against human NCI-H1975 cells expressing EGFR L858R/T790M mutant assessed as inhibition of cell proliferation incubated for 72 hrs by CCK8 assay

[5] = test system: PC-9; experiment: Induction of apoptosis in human PC-9 cells expressing EGFR Del19/T790M/C797S mutant assessed as early apoptotic cells at 0.1 uM incubated for 48 hrs by Annexin V-FITC/PI staining based flow cytometric analysis (reference value: 0.050 %); format: functional
[6] = test system: PC-9; experiment: Induction of apoptosis in human PC-9 cells expressing EGFR L858R/T790M/C797S mutant assessed as viable cells at 0.1 uM incubated for 48 hrs by Annexin V-FITC/PI staining based flow cytometric analysis (reference value: 98.9 %); format: functional; conditions: read-out: Activity
[7] = test system: PC-9; experiment: cells; conditions: Homo sapiens, PC-9, 72 h
Description: Cytotoxicity against human PC-9 cells expressing EGFR L858R/T790M/C797S mutant assessed as inhibition of cell proliferation incubated for 72 hrs by CCK8 assay

[8] = test system: MCF7; experiment: cells; conditions: Homo sapiens, MCF7, 72 h
Description: Cytotoxicity against human MCF7 cells assessed as inhibition of cell proliferation incubated for 72 hrs by CCK8 assay

[9] = test system: HCC827; experiment: cells; conditions: Homo sapiens, HCC827, 72 h
Description: Cytotoxicity against human HCC827 cells expressing EGFR Del19 mutant assessed as inhibition of cell proliferation incubated for 72 hrs by CCK8 assay

[10] = test system: PC-9; experiment: Induction of cell cycle arrest in human PC-9 cells expressing EGFR Del19/T790M/C797S mutant assessed as accumulation of cells at G2/M phase at 1 uM incubated for 24 hrs by PI staining based flow cytometric analysis; format: functional
[11] = test system: PC-9; experiment: Induction of apoptosis in human PC-9 cells expressing EGFR L858R/T790M/C797S mutant assessed as viable cells at 1 uM incubated for 48 hrs by Annexin V-FITC/PI staining based flow cytometric analysis (reference value: 98.9 %); format: functional; conditions: Homo sapiens, PC-9, read-out: Activity
[12] = test system: PC-9; experiment: Antitumor activity against human PC-9 cells expressing EGFR L858R/T790M/C797S mutant xenografted in BALB/c nude mouse assessed as tumor growth inhibition at 10 mg/kg, po administered for 18 days relative to control; format: functional; conditions: PC-9, 432 h, time 18 day, read-out: TGI
[13] = test system: PC-9; experiment: Induction of apoptosis in human PC-9 cells expressing EGFR L858R/T790M/C797S mutant assessed as late apoptotic cells at 0.1 uM incubated for 48 hrs by Annexin V-FITC/PI staining based flow cytometric analysis (reference value: 0.360 %); format: functional
[14] = test system: PC-9; experiment: Induction of apoptosis in human PC-9 cells expressing EGFR Del19/T790M/C797S mutant assessed as early apoptotic cells at 0.5 uM incubated for 48 hrs by Annexin V-FITC/PI staining based flow cytometric analysis (reference value: 0.050 %); format: functional
[15] = test system: PC-9; experiment: Induction of cell cycle arrest in human PC-9 cells expressing EGFR Del19/T790M/C797S mutant assessed as accumulation of cells at G0/G1 phase at low dose incubated for 24 hrs by PI staining based flow cytometric analysis; format: functional
[16] = test system: PC-9; experiment: Induction of apoptosis in human PC-9 cells expressing EGFR Del19/T790M/C797S mutant assessed as viable cells at 0.1 uM incubated for 48 hrs by Annexin V-FITC/PI staining based flow cytometric analysis (reference value: 99.8 %); format: functional; conditions: read-out: Activity
[17] = test system: PC-9; experiment: Antitumor activity against human PC-9 cells expressing EGFR L858R/T790M/C797S mutant xenografted in BALB/c nude mouse assessed as reduction in tumor weight at 10 to 40 mg/kg, po administered for 18 days; format: functional, organism-based; conditions: dose 10-40 mg/kg, time 18.0 day
[18] = test system: PC-9; experiment: Induction of apoptosis in human PC-9 cells expressing EGFR Del19/T790M/C797S mutant assessed as necrotic cells at 1 uM incubated for 48 hrs by Annexin V-FITC/PI staining based flow cytometric analysis (reference value: 0.090 %); format: functional
[19] = Metabolic stability in human liver microsomes assessed as intrinsic clearance at 10 uM preincubated for 5 mins followed by NADPH addition and measured upto 60 mins by HPLC analysis; format: ADME, Microsome; conditions: time < 65 min, read-out: CLH
[20] = test system: PC-9; experiment: Induction of apoptosis in human PC-9 cells expressing EGFR L858R/T790M/C797S mutant assessed as early apoptotic cells at 0.1 uM incubated for 48 hrs by Annexin V-FITC/PI staining based flow cytometric analysis (reference value: 0.210 %); format: functional
[21] = test system: PC-9; experiment: Induction of apoptosis in human PC-9 cells expressing EGFR L858R/T790M/C797S mutant assessed as early apoptotic cells at 0.5 uM incubated for 48 hrs by Annexin V-FITC/PI staining based flow cytometric analysis (reference value: 0.210 %); format: functional
[22] = Metabolic stability in mouse liver microsomes assessed as half-life at 10 uM preincubated for 5 mins followed by NADPH addition and measured upto 60 mins by HPLC analysis; format: ADME, Microsome; conditions: time < 65 min
[23] = test system: PC-9; experiment: Induction of apoptosis in human PC-9 cells expressing EGFR Del19/T790M/C797S mutant assessed as viable cells at 0.5 uM incubated for 48 hrs by Annexin V-FITC/PI staining based flow cytometric analysis (reference value: 99.8 %); format: functional; conditions: read-out: Activity
[24] = test system: A-431; experiment: cells; conditions: Homo sapiens, A-431, 72 h
Description: Cytotoxicity against human A-431 cells assessed as inhibition of cell proliferation incubated for 72 hrs by CCK8 assay

[25] = Metabolic stability in Sprague-Dawley rat liver microsomes assessed as intrinsic clearance at 10 uM preincubated for 5 mins followed by NADPH addition and measured upto 60 mins by HPLC analysis; format: ADME, Microsome; conditions: time < 65 min, read-out: CLH
[26] = test system: PC-9; experiment: Antitumor activity against human PC-9 cells expressing EGFR L858R/T790M/C797S mutant xenografted in BALB/c nude mouse assessed as tumor growth inhibition at 20 mg/kg, po administered for 18 days relative to control; format: functional; conditions: PC-9, 432 h, time 18 day, read-out: TGI
[27] = test system: PC-9; experiment: Induction of apoptosis in human PC-9 cells expressing EGFR Del19/T790M/C797S mutant assessed as viable cells at 1 uM incubated for 48 hrs by Annexin V-FITC/PI staining based flow cytometric analysis (reference value: 99.8 %); format: functional; conditions: Homo sapiens, PC-9, read-out: Activity
[28] = Toxicity in BALB/c nude mouse xenografted with human PC-9 cells expressing EGFR L858R/T790M/C797S mutant assessed as body weight loss at 10 to 40 mg/kg, po administered for 18 days; format: organism-based; conditions: in vivo, 432 h, dose 10-40 mg/kg, time 18 day
[29] = test system: PC-9; experiment: Induction of apoptosis in human PC-9 cells expressing EGFR L858R/T790M/C797S mutant assessed as viable cells at 0.5 uM incubated for 48 hrs by Annexin V-FITC/PI staining based flow cytometric analysis (reference value: 98.9 %); format: functional; conditions: read-out: Activity

## C=CC(=O)Nc1cc(Nc2ncc(F)c(-c3ccc4cc(C(=O)NC)n(C(C)C)c4c3)n2)ccc1N1CCN(C)CC1
[1]
  Activity: 36.3%
[2]
  Activity: 4.02%
[3]
  microsomal CLint at 10 µM: 32.7 µL/min/mg
[4]
  IC50: 106 nM
[5]
  Activity: 3.32%
[6]
  viability at 0.1 µM: 84.9%
[7]
  IC50: 52 nM
[8]
  IC50: 3610 nM
[9]
  IC50: 108 nM
[10]
  Activity: Active
[11]
  viability at 1 µM: 58.8%
[12]
  inhibition in vivo at 10 mg/kg: 48.7%
[13]
  Activity: 7.25%
[14]
  Activity: 11.8%
[15]
  Activity: Active
[16]
  viability at 0.1 µM: 85.8%
[17]
  Activity: Active
[18]
  Activity: 1.01%
[19]
  microsomal CLint at 10 µM: 20 µL/min/mg
[20]
  Activity: 2.03%
[21]
  Activity: 30.3%
[22]
  half-life at 10 µM: 1.38 h
[23]
  viability at 0.5 µM: 82.8%
[24]
  IC50: 1070 nM
[25]
  microsomal CLint at 10 µM: 52 µL/min/mg
[26]
  inhibition in vivo at 20 mg/kg: 58.4%
[27]
  viability at 1 µM: 79.1%
[28]
  Activity: Non-Toxic
[29]
  viability at 0.5 µM: 61.2%

From ChEMBL document CHEMBL5614390, “Novel EGFR inhibitors against resistant L858R/T790M/C797S mutant for intervention of non-small cell lung cancer” (Eur J Med Chem, 2024)
